From patent US10420734B2, “Method of treating cancer using selective estrogen receptor modulators” (Duke University, priority 2014, dated 2019) come the findings set out here.

The target in assay [1] is T1, ESR1 (Homo sapiens, UniProt P03372).
T1 sequence (P03372 1-595): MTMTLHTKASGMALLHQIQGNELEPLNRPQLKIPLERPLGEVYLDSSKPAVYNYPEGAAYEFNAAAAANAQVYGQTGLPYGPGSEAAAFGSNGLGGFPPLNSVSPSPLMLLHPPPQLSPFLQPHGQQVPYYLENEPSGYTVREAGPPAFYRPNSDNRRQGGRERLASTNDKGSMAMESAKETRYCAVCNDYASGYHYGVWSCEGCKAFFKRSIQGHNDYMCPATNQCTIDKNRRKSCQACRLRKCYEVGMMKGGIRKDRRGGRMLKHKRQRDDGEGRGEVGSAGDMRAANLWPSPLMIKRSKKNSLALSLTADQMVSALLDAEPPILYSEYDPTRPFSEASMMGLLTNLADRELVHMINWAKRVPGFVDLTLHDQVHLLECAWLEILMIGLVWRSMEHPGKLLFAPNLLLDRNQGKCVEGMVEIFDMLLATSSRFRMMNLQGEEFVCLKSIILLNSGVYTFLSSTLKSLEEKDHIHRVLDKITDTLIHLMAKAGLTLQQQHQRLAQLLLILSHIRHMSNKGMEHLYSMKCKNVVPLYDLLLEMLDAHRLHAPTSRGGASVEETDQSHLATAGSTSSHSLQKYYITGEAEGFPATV
Put plainly: ESR1 expression in LTED MCF7 cells (immunoblot). The settings on record: 24 hours, SERDs 10^-6 M. The format is cell-based. On the procedure: MCF7 and SKBR3 cell lines were maintained in DMEM/F12 or RPMI media (Invitrogen), respectively, supplemented with 8% fetal bovine serum (FBS, Gemini), non-essential amino acids (Invitrogen), and sodium pyruvate (Invitrogen). Unless otherwise indicated, cells were plated for experiments in media lacking phenol red and supplemented with 8% charcoal stripped FBS (CFS, Gemini). LTED MCF7 cells were maintained and plated for experiments in phenol red free DMEM/F12 media supplemented with 8% CFS that had been charcoal stripped twice. 48 hours after plating, cells were treated with ESR1 ligands as indicated, and were harvested for immunoblot or real time quantitative PCR analysis 24 hours after treatment.
Expression of ESR1 and loading control cytokeratin 18 (CK18—FIG. 7A) in whole cell extracts were detected by immunoblot (top). ESR1 levels relative to CK18 were quantitated by densitometry using Adobe Photoshop (bottom). […] ESR1 expression was detected as in FIG. 6A. For FIGS. 6C-6D, LTED MCF7 cells were plated in phenol red free media supplemented with FBS that was stripped of growth factors twice using charcoal. For FIG. 6C, after 48 hours, cells were treated for 24 hours with E2 (10^−7 M) or SERDs (10^−6 M) and ESR1 was analyzed as in FIG. 6A.

Assay [2] concerns the target T2, ESR1 (Mus musculus, UniProt P19785).
T2 construct: tissue Charles River (mice); host or cells: uterus of ovariectomized female C57Bl/6 mice
T2 sequence (P19785 1-599): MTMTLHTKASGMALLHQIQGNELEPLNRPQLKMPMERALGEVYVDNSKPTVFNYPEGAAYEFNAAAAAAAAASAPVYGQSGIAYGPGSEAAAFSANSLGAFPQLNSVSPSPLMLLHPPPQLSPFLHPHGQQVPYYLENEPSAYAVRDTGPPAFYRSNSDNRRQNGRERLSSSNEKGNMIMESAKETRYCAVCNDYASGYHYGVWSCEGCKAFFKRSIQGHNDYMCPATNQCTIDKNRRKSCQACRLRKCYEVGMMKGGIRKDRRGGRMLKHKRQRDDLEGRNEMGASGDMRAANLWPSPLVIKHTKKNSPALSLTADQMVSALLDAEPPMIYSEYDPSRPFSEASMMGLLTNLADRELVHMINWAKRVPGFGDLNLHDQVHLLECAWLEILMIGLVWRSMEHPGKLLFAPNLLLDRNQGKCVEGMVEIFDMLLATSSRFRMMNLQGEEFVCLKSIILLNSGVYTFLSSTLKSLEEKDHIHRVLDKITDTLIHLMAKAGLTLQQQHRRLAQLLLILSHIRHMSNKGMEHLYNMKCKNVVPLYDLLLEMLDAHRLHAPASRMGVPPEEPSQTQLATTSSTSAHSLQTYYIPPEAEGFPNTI
The experiment in a line: Uterine wet weight analysis in ovariectomized C57Bl/6 mice. The format is in vivo. Conditions: for uterine wet weight, single agent: without E2. On the procedure: Uterine wet weight analysis: Ovariectomized (10 days prior) female C57Bl/6 mice (Charles River) were treated daily (n=5) for 3 days with vehicle or estradiol benzoate (10 μg/kg sc) as well as vehicle, raloxifene (10 mg/kg sc), or RAD1901 (0.1-100 mg/kg sc). Ligands were dissolved in corn oil (Spectrum chemicals). On day 4, mice were euthanized and tissues were retained for analysis. Uterine wet weight was calculated as a ratio of uterus weight upon removal to body weight post-mortem.
As a first step, the impact of RAD1901 on uterine wet weight in mice was evaluated. For this study, increasing doses of RAD1901 was administered daily to ovariectomized C57Bl/6 mice receiving vehicle alone or E2 (10 μg/kg; a physiological replacement dose). A group of mice receiving 10 mg/kg of raloxifene was included for comparative purposes and for reference. Ovariectomized C57Bl/6 mice (n=5) were treated daily for 3 days with (FIG. 8A) vehicle or (FIG. 8B) estradiol (10 μg/kg) together with vehicle, Ralox (10 mg/kg) or RAD1901 (RAD), ([…]). At euthanasia, body weight as well as uterine wet weight was measured prior to cryopreservation of the uterus. […] For FIG. 8C, ESR1 and β-actin expression in extracts made from pulverized uterine tissues were analyzed by immunoblot as in FIG. 5 (left). ESR1 expression relative to β-actin was quantitated as in FIG. 6 (right). Significant downregulation (*p<0.05) of ESR1 was determined by ANOVA followed by Bonferroni comparison.

Turning to `CCNCCc1ccc(CN(CC)c2cc(OC)ccc2[C@@H]2CCc3cc(O)ccc3C2)cc1` [RAD1901, (R)-6-{2-{ethyl[4-(2-ethylaminoethyl)benzyl]amino}-4-methoxyphenyl}-5,6,7,8-tetrahydronaphthalen-2-ol], the ESR1 expression levels entry at ESR1 [1] is on record as “downregulated ESR1 expression”. The “ESR1 expression in uterine tissue (immunoblot)” value is listed as “no decrease in ESR1 expression” on ESR1 [2] (0.3 mg/kg) and “dose dependent downregulation” on ESR1 [2] (RAD1901 0.3-100 mg/kg). Further, the “uterine wet weight, single agent” value is “statistically significant increase” on ESR1 [2] (0.3 mg/kg sc daily for 3 days); “indistinguishable from vehicle treated animals” on ESR1 [2] (doses of 1 mg/kg and above, sc daily for 3 days). Further, on ESR1 [2] (with estradiol 10 μg/kg, RAD1901 0.3-100 mg/kg), the “E2-dependent increases in uterine wet weight” value is given as “inhibit E2-dependent increases in uterine wet weight”.
